Test results as given in patent US12297238B2, “FimH mutants, compositions therewith and use thereof” (Janssen Pharmaceuticals, Inc., priority 2021, dated 2025).

Key:
Details in all cases: SPR, HBS-N pH 7.4, single cycle kinetics
[1] = target: E. coli FimH lectin domain (FimHLD 23-10, SEQ ID NO: 1) variant F144V/F71Y (Escherichia coli, UniProt P08191, F165V/F92Y/V48A)
Method: (§1) To gain a detailed insight into the binding affinity and kinetics of the interaction of FimH lectin domain variants with the n-Heptyl-α-D-mannopyranoside ligand, surface plasmon resonance (SPR) measurements were performed. In brief, the FimH variants were titrated into the Mannoside ligand 5 surface (Rabbani S et al, J Biol. Chem., 2018, 293(5):1835-1849) with the top concentrations of either 3 or 10 μM in HBS-N(0.01 M HEPES, pH 7.4, 0.15 M NaCl, 3 mM EDTA, 0.05% surfactant P20). The proteins were injected from 0.12 to 10 μM or 0.036 to 3.0 μM using a single cycle kinetics injection.
(§2) These mutants were taken as positive controls. […] Additionally, wild-type (WT) FimH lectin domain was taken along as a negative control.
(§3) The variants affinity for binding to mannose was assessed using SPR.

[2] = target: E. coli FimH lectin domain (FimHLD 23-10, SEQ ID NO: 1) variant F144V (Escherichia coli, UniProt P08191, F165V/V48A)
E. coli FimH lectin domain (FimHLD 23-10, SEQ ID NO: 1) variant F144V, sequence (P08191 22-180 V48A/F165V): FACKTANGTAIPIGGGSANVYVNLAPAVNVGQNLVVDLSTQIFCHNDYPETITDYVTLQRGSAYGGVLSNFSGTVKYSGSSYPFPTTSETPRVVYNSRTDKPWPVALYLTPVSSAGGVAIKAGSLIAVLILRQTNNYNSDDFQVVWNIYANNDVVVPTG
Method: as §1, §2, §3

[3] = target: E. coli FimH lectin domain (FimHLD 23-10, SEQ ID NO: 1) variant Q133K (Escherichia coli, UniProt P08191, Q154K/V48A)
E. coli FimH lectin domain (FimHLD 23-10, SEQ ID NO: 1) variant Q133K, sequence (P08191 22-180 V48A/Q154K): as the sequence (P08191 22-180 V48A/F165V) above, with Q133K, V144F counted along it
Method: as §1, §2, §3

[4] = target: E. coli FimH lectin domain (FimHLD 23-10, SEQ ID NO: 1) variant R60P (Escherichia coli, UniProt P08191, R81P/V48A)
E. coli FimH lectin domain (FimHLD 23-10, SEQ ID NO: 1) variant R60P, sequence (P08191 22-180 V48A/R81P): as the sequence (P08191 22-180 V48A/F165V) above, with R60P, V144F counted along it
Method: as §1, §2, §3

[5] = target: E. coli FimH lectin domain (FimHLD 23-10, SEQ ID NO: 1) variant R60P-Q133K (Escherichia coli, UniProt P08191, Q154K/R81P/V48A)
E. coli FimH lectin domain (FimHLD 23-10, SEQ ID NO: 1) variant R60P-Q133K, sequence (P08191 22-180 V48A/R81P/Q154K): as the sequence (P08191 22-180 V48A/F165V) above, with R60P, Q133K, V144F counted along it
Method: as §1, §2, §3

[6] = target: E. coli FimH lectin domain (FimHLD 23-10, SEQ ID NO: 1) variant F71Y (Escherichia coli, UniProt P08191, F92Y/V48A)
E. coli FimH lectin domain (FimHLD 23-10, SEQ ID NO: 1) variant F71Y, sequence (P08191 22-180 V48A/F92Y): as the sequence (P08191 22-180 V48A/F165V) above, with F71Y, V144F counted along it
Method: as §1, §2, §3

E. coli FimH lectin domain (FimHLD 23-10, SEQ ID NO: 1) variant F144V/F71Y, sequence (P08191 22-180 V48A/F92Y/F165V): as the sequence (P08191 22-180 V48A/F165V) above, with F71Y counted along it

SMILES: CCCCCCCO[C@H]1O[C@H](CO)[C@@H](O)[C@H](O)[C@@H]1O [n-Heptyl-α-D-mannopyranoside]
- Affinity (KD) [1]: completely abolished
- Affinity (KD) [2]: completely abolished
- Affinity (KD) [3]: did not bind to mannoside at all
- Affinity (KD) [4]: low affinity
- Affinity (KD) [5]: did not bind to mannoside at all
- Affinity (KD) [6]: some affinity
